According to patent publication US12495798B2, “Nicotinamide compound and herbicidal composition comprising compound” (KOREA RESEARCH INSTITUTE OF CHEMICAL TECHNOLOGY, priority 2019, dated 2025):

Columns and labels:
Format in all cases: in vivo
barnyard grass = experiment: Herbicidal activity test against upland field weeds (foliar treatment test); settings: 50 g ai/ha, scale 0-100; for pest or weed control at 50 g/ha: Echinochloa crus-galli
Outline: (§1)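 Greenhouse-grown plants (30±5 °C, 14/10 h light/dark) foliar hand-sprayed with compound in 50% acetone, 0.1% Tween-20 at 50 or 75 g a.i./ha. Control visually scored 0 (none) to 100 (complete) versus untreated after 14 days, or 21 days if needed.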

quack grass = experiment: as above; parameters: key to Foliar treatment herbicidal activity, quack grass: 0 (no control); 100 (complete control); settings: 50 g ai/ha, scale 0-100
Outline: as §1

indian jointvetch = experiment: as above; settings: 50 g ai/ha, scale 0-100
Outline: as §1

black nightshade = experiment: as above; parameters: key to Foliar treatment herbicidal activity, black nightshade: 0 (no control); 100 (complete control); settings: 50 g ai/ha, scale 0-100; for pest or weed control at 50 g/ha: Solanum nigrum
Outline: as §1

cocklebur = experiment: as above; settings: 50 g ai/ha, scale 0-100; for pest or weed control at 50 g/ha: Xanthium strumarium
Outline: as §1

crabgrass = experiment: as above; settings: 50 g ai/ha, scale 0-100; for pest or weed control at 50 g/ha: Digitaria sanguinalis
Outline: as §1

wheat = experiment: Phytotoxicity test for upland field crops (foliar treatment test); parameters: key: 0 (no harm); 9 (complete withered)
Outline: (§2)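 Crops grown in greenhouse pots (30±5 °C, 14/10 h light) were foliar-sprayed with compound at 19–300 g a.i./ha in 33% acetone/0.1% Tween-20. Phytotoxicity scored 0 (no harm) to 9 (complete withering) versus untreated control at 7 and 14 days, 21 if needed.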

corn = experiment: as above; parameters: key: 0 (no harm); 9 (complete withered)
Outline: as §2

bindweed = experiment: Herbicidal activity test against upland field weeds (foliar treatment test); settings: 50 g ai/ha, scale 0-100
Outline: as §1

sorghum = experiment: as above; settings: 50 g ai/ha, scale 0-100; for plant injury at 50 g/ha: Sorghum
Outline: as §1

fall panicum = experiment: as above; settings: 50 g ai/ha, scale 0-100; for pest or weed control at 50 g/ha: Panicum dichotomiflorum
Outline: as §1

velvetleaf = experiment: as above; settings: 50 g ai/ha; for pest or weed control at 50 g/ha: Abutilon theophrasti, scale 0-100, read-out: Foliar treatment herbicidal activity, velvet leaf
Outline: as §1

[1] = 50 g ai/ha, Wheat (7 days after treatment)
[2] = 50 g ai/ha, Wheat (14 days after treatment)
[3] = 100 g ai/ha, Wheat (7 days after treatment)
[4] = 100 g ai/ha, Wheat (14 days after treatment)
[5] = 50 g ai/ha, Corn (7 days after treatment)
[6] = 50 g ai/ha, Corn (14 days after treatment)
[7] = 100 g ai/ha, Corn (7 days after treatment)
[8] = 100 g ai/ha, Corn (14 days after treatment)

SMILES	pest or weed control at 50 g/ha (barnyard grass)	Foliar treatment herbicidal activity, quack grass (quack grass)	pest or weed control at 50 g/ha (indian jointvetch)	pest or weed control at 50 g/ha (black nightshade)	pest or weed control at 50 g/ha (cocklebur)	pest or weed control at 50 g/ha (crabgrass)	Foliar treatment phytotoxicity, Wheat (wheat; [1])	Foliar treatment phytotoxicity, Wheat (wheat; [2])	Foliar treatment phytotoxicity, Wheat (wheat; [3])	Foliar treatment phytotoxicity, Wheat (wheat; [4])	Foliar treatment phytotoxicity, Corn (corn; [5])	Foliar treatment phytotoxicity, Corn (corn; [6])	Foliar treatment phytotoxicity, Corn (corn; [7])	Foliar treatment phytotoxicity, Corn (corn; [8])	pest or weed control at 50 g/ha (bindweed)	plant injury at 50 g/ha (sorghum)	pest or weed control at 50 g/ha (fall panicum)	pest or weed control at 50 g/ha (velvetleaf)	Foliar treatment herbicidal activity, black nightshade (black nightshade)	other results
C=CCn1nnnc1NC(=O)c1ccc(C(F)(F)F)nc1COCc1nc(C(F)(F)F)n(C)n1 [Compound No. 2-121, N-(1-allyl-1H-tetrazol-5-yl)-2-(((1-methyl-5-(trifluoromethyl)-1H-1,2,4-triazol-3-yl)methoxy)methyl)-6-(trifluoromethyl)nicotinamide]	20%	0	30%	95%	70%	30%	0	0	0	0	0	0	0	0	40%	10%	50%	40%	–	–
Cn1nnnc1NC(=O)c1ccc(C(F)(F)F)nc1COCc1nc(C(F)(F)F)n(C)n1 [Compound No. 2-118, N-(1-methyl-1H-tetrazol-5-yl)-2-(((1-methyl-5-(trifluoromethyl)-1H-1,2,4-triazol-3-yl)methoxy)methyl)-6-(trifluoromethyl)nicotinamide]	95%	0	50%	–	90%	90%	0	0	0	0	0	0	0	0	95%	40%	95%	90%	100	–
Cn1nc(COCc2nc(C(F)(F)F)ccc2C(=O)Nc2nnnn2C)nc1CF [Compound No. 2-126, 2-(((5-(fluoromethyl)-1-methyl-1H-1,2,4-triazol-3-yl)methoxy)methyl)-N-(1-methyl-1H-tetrazol-5-yl)-6-(trifluoromethyl)nicotinamide]	80%	0	50%	–	90%	90%	0	0	0	0	1	1	3	2	20%	60%	80%	80%	100	–
Cn1nnnc1NC(=O)c1ccc(C(F)(F)F)nc1COCc1nc(S(C)(=O)=O)n(C)n1 [Compound No. 2-132, N-(1-methyl-1H-tetrazol-5-yl)-2-(((1-methyl-5-(methylsulfonyl)-1H-1,2,4-triazol-3-yl)methoxy)methyl)-6-(trifluoromethyl)nicotinamide]	98%	0	20%	–	98%	98%	3	2	3	2	0	0	0	0	70%	30%	50%	98%	100	–
C=Cc1nc(COCc2nc(C(F)(F)F)ccc2C(=O)Nc2nnnn2C)nn1C [Compound No. 2-127, N-(1-methyl-1H-tetrazol-5-yl)-2-(((1-methyl-5-vinyl-1H-1,2,4-triazol-3-yl)methoxy)methyl)-6-(trifluoromethyl)nicotinamide]	60%	0	20%	80%	60%	60%	0	0	0	0	0	0	0	0	50%	30%	40%	30%	–	–
CCCn1nnnc1NC(=O)c1ccc(C(F)(F)F)nc1COCc1nc(C(F)F)n(C)n1 [Compound No. 2-124]	–	20	–	–	–	–	0	1	1	1	2	1	3	2	–	–	–	–	95	Foliar treatment herbicidal activity, barnyard grass (barnyard grass): 90; Foliar treatment herbicidal activity, Indian jointvetch (indian jointvetch): 60; Foliar treatment herbicidal activity, Cocklebur (cocklebur): 80; Foliar treatment herbicidal activity, Crabgrass (crabgrass): 95; Foliar treatment herbicidal activity, Bindweed (bindweed): 70; Foliar treatment herbicidal activity, Sorghum (sorghum): 40; Foliar treatment herbicidal activity, Fall panicum (fall panicum): 90; Foliar treatment herbicidal activity, velvet leaf (velvetleaf; scale 0-100): 60
